Data reported in patent publication US12551564B2, “IRAK degraders and uses thereof” (Kymera Therapeutics, Inc., priority 2019, dated 2026).
Read-outs that look alike come from different tables or passages of the source.

Assays:
[1] = biological target: T1, IRAK4 (Homo sapiens, UniProt Q9NWZ3); experiment: IRAK4 degradation in OCI-LY10 (MSD); assay type: cell-based; settings: OCI-LY10 cells
T1 construct: endogenous in cells; host or cells: OCI-LY10
T1 sequence (Q9NWZ3 1-460): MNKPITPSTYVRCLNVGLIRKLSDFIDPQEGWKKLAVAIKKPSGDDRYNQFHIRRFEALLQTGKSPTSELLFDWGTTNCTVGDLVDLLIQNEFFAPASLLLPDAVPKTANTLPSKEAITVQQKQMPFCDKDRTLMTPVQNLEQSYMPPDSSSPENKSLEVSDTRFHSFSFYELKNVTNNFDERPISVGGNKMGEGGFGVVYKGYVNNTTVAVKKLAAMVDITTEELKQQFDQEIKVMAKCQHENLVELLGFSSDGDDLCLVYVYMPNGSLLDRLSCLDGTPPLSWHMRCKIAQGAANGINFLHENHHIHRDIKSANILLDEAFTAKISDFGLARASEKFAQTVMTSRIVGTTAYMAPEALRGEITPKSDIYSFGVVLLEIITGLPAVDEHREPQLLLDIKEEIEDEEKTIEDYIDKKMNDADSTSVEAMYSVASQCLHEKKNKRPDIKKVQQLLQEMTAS
Description: IRAK4 degradation in OCI-LY10 (MSD)
Degradation of IRAK4 in OCI-LY10 was quantitatively measured using Meso Scale Discovery technology. OCI-LY10 cells were seeded in 96-well plates (Corning 3799) with a density of 300,000 cells per well in 100 μL fresh media. Compounds were then added to the assay plates with a final top concentration of 1 to 10 μM in a 1:3 dilution series with total of 8 doses. The assay plates were then incubated for 4 to 24 hours at 37° C. under 5% CO2. The assay plates were then centrifuged for 5 minutes and the cell pellets were treated with 100 μL/well RIPA lysis buffer (Boston BioProducts BP-115D) with proteinase inhibitors. To prepare MSD assay plates (Meso Scale Discovery Catalog number L15XA-3), the plates were coated with 2 μg/mL capture antibody (mouse Anti-IRAK4 antibody [2H9], ab119942) in PBS, at 40 μL/well. The plates were then incubated overnight at 4° C., washed 3 times with 150 μL/well TBST buffer (Cell Signaling Technology, Catalog number 9997S) and blocked with 150 μL well blocking buffer (Meso Scale Discovery Catalog number R93BA-4). Cell lysates were then added to MSD assay plates and the plates were incubated at room temperature for 1 hour. The plates were then washed 3 times with 150 μL/well TBST buffer and 25 μL/well primary detection antibody (rabbit Anti-IRAK4 antibody [Y279], from Abcam. Catalog number ab32511, 1 μg/mL). The assay plates were then incubated at room temperature for 1 hour, washed 3 times with 150 TBST buffer and 25A/well secondary detection antibody, SULFO-TAG anti-rabbit antibody were added (anti rabbit antibody from Meso Scale Discovery, Catalog number R32AB-1, 1 μg/mL). The assay plates were then incubated at room temperature for 1 hour, washed 3 times with 150 TBST buffer, and 150 MSD reading buffer (Meso Scale Discovery catalog number R92TC-2) was added. The plates were then analyzed by a MSD reader (Meso Scale Discovery, Model Quick Plex SQ 120). The data was then analyzed by software Prism 7.0 from GraphPad and the dose-depended IRAK4 degradation were fit using a three-parameter logistic equation to calculate DC50.

[2] = system: OCI-LY10; experiment: CTG Cell Viability Assay - OCI-LY10 (CellTiter-Glo); assay type: cell-based; settings: Homo sapiens, 96 h; OCI-LY10 cells, 4 days incubation; read-out: CTG Cell Viability Assay-OCI-LY100: Average external-IC50
Description: Cell viability assay with OCI-LY10 and TMD8
Compound-mediated viability effect on OCI-LY10 or TMD8 were quantitatively determined using the CellTiter-Glo® Luminescent Cell Viability Assay kit from Promega (Catalog number G7570) following manufacturer's recommended procedures. Briefly, OCI-LY10 or TMD8 cells is seeded into 384 well plates (Grenier Bio-One, Catalog number 781080) with a density of 10,000 cells per well. Compounds were then added to the assay plate with final top concentration of 10 μM and 1:3 dilution series with total of 9 doses. The final DMSO concentration was normalized to 0.2%. The assay plates were incubated at 37° C. for 4 days under 5% CO2. Then the assay plate was equilibrated at room temperature for 10 minutes. To determine cell viability, 30 μL CellTiter Glo reagent was added to each well and the assay plate was centrifuged at 1000 rpm for 30 second, incubated at room temperature for 10 min, and analyzed by detecting the luminescence using a multimode plate reader (EnVision 2105, PerkinElmer). The data was then analyzed by software Prism 7.0 from GraphPad and the dose response curves were fit using a three-parameter logistic equation to calculate IC50.

[3] = 4 hrs incubation, read-out: IRAK4 MSD degradation in OCI-LY10 at 4 hrs: Average external-Abs DC50
[4] = 24 hrs incubation, read-out: IRAK4 MSD degradation in OCI-LY10 at 24 hrs: Average external-Abs DC50

Compound | DC50 [1, 3] [µM] | DC50 [1, 4] [µM] | IC50 [2] [µM]
COCC(=O)N1CCCc2cc(OCC(=O)NCCCCCN(C)C[C@H]3CC[C@H](n4cc(NC(=O)c5coc(-c6ccnc(NCC7CC7)c6)n5)c(C(F)F)n4)CC3)ccc21 [I-9, 2-[2-(cyclopropylmethylamino)-4-pyridyl]-N-[3-(difluoromethyl)-1-[4-[[5-[[2-[[1-(2-methoxyacetyl)-3,4-dihydro-2H-quinolin-6-yl]oxy]acetyl]amino]pentyl-methyl-amino]methyl]cyclohexyl]pyrazol-4-yl]oxazole-4-carboxamide] | > 1 | > 1 | > 1
CN(CCCCCCOc1ccc(Oc2ccc(N(Cc3ccccc3)C(=O)CCl)cc2)cc1)C[C@H]1CC[C@H](n2cc(NC(=O)c3coc(-c4ccnc(NCC5CC5)c4)n3)c(C(F)F)n2)CC1 [I-6] | > 1 | > 1 | 0.5 to 1
CN(CCCCCNC(=O)COc1ccc2c(c1)CCCN2C(=O)CCl)C[C@H]1CC[C@H](n2cc(NC(=O)c3coc(-c4ccnc(NCC5CC5)c4)n3)c(C(F)F)n2)CC1 [I-2] | > 1 | > 1 | > 1
CN(CCCNC(=O)COc1ccc2c(c1)CCCN2C(=O)CCl)C[C@H]1CC[C@H](n2cc(NC(=O)c3coc(-c4ccnc(NCC5CC5)c4)n3)c(C(F)F)n2)CC1 [I-1, N-(1-((1r,4r)-4-(((3-(2-((1-(2-chloroacetyl)-1,2,3,4-tetrahydroquinolin-6-yl)oxy)acetamido)propyl)(methyl)amino)methyl)cyclohexyl)-3-(difluoromethyl)-1H-pyrazol-4-yl)-2-(2-((cyclopropylmethyl)amino)pyridin-4-yl)oxazole-4-carboxamide] | > 1 | > 1 | > 1
COCC(=O)N(Cc1ccccc1)c1ccc(Oc2ccc(OCCCCN(C)C[C@H]3CC[C@H](n4cc(NC(=O)c5coc(-c6ccnc(NCC7CC7)c6)n5)c(C(F)F)n4)CC3)cc2)cc1 [I-11] |  | > 1 | 0.5 to 1
CN(CCCCCCCCCNC(=O)COc1ccc2c(c1)CCCN2C(=O)CCl)C[C@H]1CC[C@H](n2cc(NC(=O)c3coc(-c4ccnc(NCC5CC5)c4)n3)c(C(F)F)n2)CC1 [I-4] |  | > 1 | > 1
CN(CCCCOc1ccc(Oc2ccc(N(Cc3ccccc3)C(=O)CCl)cc2)cc1)C[C@H]1CC[C@H](n2cc(N(C)C(=O)c3coc(-c4ccnc(NCC5CC5)c4)n3)c(C(F)F)n2)CC1 [I-12] |  | > 1 | 0.5 to 1

More lines, now with the values ahead:

DC50 [1, 3] [µM] | DC50 [1, 4] [µM] | IC50 [2] [µM] | Compound
> 1 | > 1 | > 1 | CN(CCCCCCCNC(=O)COc1ccc2c(c1)CCCN2C(=O)CCl)C[C@H]1CC[C@H](n2cc(NC(=O)c3coc(-c4ccnc(NCC5CC5)c4)n3)c(C(F)F)n2)CC1 [I-3]
> 1 | > 1 | > 1 | CN(CCCCOc1ccc(Oc2ccc(N(Cc3ccccc3)C(=O)CCl)cc2)cc1)C[C@H]1CC[C@H](n2cc(NC(=O)c3coc(-c4ccnc(NCC5CC5)c4)n3)c(C(F)F)n2)CC1 [I-5]
> 1 | 0.1 to 1 | 0.5 to 1 | CN(CCCCCCCCCCOc1ccc(Oc2ccc(N(Cc3ccccc3)C(=O)CCl)cc2)cc1)C[C@H]1CC[C@H](n2cc(NC(=O)c3coc(-c4ccnc(NCC5CC5)c4)n3)c(C(F)F)n2)CC1 [I-8, N-(1-((1r,4r)-4-(((10-(4-(4-(N-benzyl-2-chloroacetamido)phenoxy)phenoxy)decyl)(methyl)amino)methyl)cyclohexyl)-3-(difluoromethyl)-1H-pyrazol-4-yl)-2-(2-((cyclopropylmethyl)amino)pyridin-4-yl)oxazole-4-carboxamide]
> 1 | 0.1 to 1 | 0.5 to 1 | CN(CCCCCCCCOc1ccc(Oc2ccc(N(Cc3ccccc3)C(=O)CCl)cc2)cc1)C[C@H]1CC[C@H](n2cc(NC(=O)c3coc(-c4ccnc(NCC5CC5)c4)n3)c(C(F)F)n2)CC1 [I-7]
